Measured values taken from patent publication US6815421B1, “Polypeptides for use in ameliorating effects of aging in mammals” (Osteopharm Inc., priority 2001, dated 2004).

Test: Body weight and DEXA body composition in aging intact and ovariectomized rats treated with polypeptide
Type: in vivo, female Sprague-Dawley rats
Settings: for increase in bone mineral content / increase in body fat content: DEXA
Protocol: Experiments were conducted using female Sprague-Dawley rats that were about 5 months old at the beginning of the experiments. The rats were obtained from Vivarium of the University of Toronto, Mississauga, Ontario, Canada.
The rats were housed in pairs in either a standard shoebox cage 15 cm in height (low cage) or a cage with 22 cm height (tall cage). Humidity was maintained at 50%; temperature 22° C.; dark/light cycle of 12 hours. The rats were fed Standard Purina Rat Chow (unlimited daily supply) and tap water ad libitum.
Ovariectomies were performed under general isofluorane anaesthesia. A 1.5 cm dorsal midline incision was made. The skin and subcutaneous tissue were separated by blunt dissection. A small incision was made on either side in the posterior abdominal muscle wall (approximately 0.5 cm) to expose the ovaries. The ovaries were removed together with the proximal ends of the Fallopian tubes after the ligation of the ovarian arteries. The wounds in the abdominal muscle wall were not stitched. The dorsal skin wound was closed by three surgical wound clips. Tamgesic (0.2 ml) was given subcutaneously for the relief of pain immediately after the operation.
Body weight measurements were made by direct weighing with an electronic balance (to 0.01 g) and by DEXA measurement, Instrument: Hologic 4500A with program for regional measurement for small animals. The animals were scanned supine under general isofluorane anaesthesia. The whole body was scanned including the whole tail. The weights for the mineral content, the fat content and the lean body mass were summed to obtain total body weight.
Non-treated (control) animals were injected subcutaneously daily with 400 μL of 20 mM sodium acetate (pH 4.5) 5 days per week. Treated animals were injected subcutaneously with 300 nmoles per kg of body weight of the test polypeptide (SEQ ID NO:1) in 400 μL of 20 mM sodium acetate (pH 4.5) daily five days per week. The treatment period was nine months. The material, chemically synthesized, was obtained from the Protein DNA Core facility of Queen's University, Kingston, Ontario, Canada. Purification, by HPLC, indicated the test compound to be at least 95% pure.
DEXA measurements were evaluated as an indication of body composition. Through the attenuation of X-ray energy DEXA measurements provide an indication of the mass of various body tissues. In the Hologic DEXA instrument, the program measures the mass of bone tissue, fat and lean body mass (largely muscle mass). The sum of these measured masses represents total body mass. If this proposition is correct, then the total body mass measured by DEXA and measured directly by balance will be the same. Over the course of these experiments, 677 paired measurements of the body weight were made using the two methods. The results obtained (FIG. 1) indicate that there is a close relationship between the DEXA measurements and the measurements. It was thus concluded that body composition could be assessed using DEXA measurements.
Eight groups of rats were treated as follows:
Ovariectomies were performed at the age of 5 months. The ovariectomized animals were allowed to lose bone for two months following ovariectomy before the treatment began. A baseline measurement was made immediately prior to operation. Another pretreatment baseline measurement was made at the beginning of treatment, i.e. two months after ovariectomization. Measurements were made approximately monthly thereafter. At the end of the experiments, all animals were sacrificed by carbon dioxide narcosis.
Procedures were carried out according to the following schedule: […]

Substance: Xaa1-Thr-GIn-Glu-His-Thr-Ala-Glu-Cys-Xaa10, where Xaa1 is N-acetyl arginine and Xaa10 is lysinamide (Ac-RTQEHTAECK-NH2) [SEQ ID NO:1, 10-mer, protected at both ends]
- change in lean body mass (all groups of rats (intact and ovariectomized, treated and untreated), 10-month experimental period, FIGS. 6A to 7B): relatively small change
- increase in bone mineral content (intact rats, FIG. 8): attenuation of the increase
- increase in body fat content (intact rats, vs untreated (control) rats, reduction greatest in tall cages, FIG. 4): reduced
- age-related gain in total body weight (intact rats, tall and low cages, 300 nmoles per kg s.c. daily five days per week, vs untreated, FIG. 2): lower age-related gain
- change in BMC/BW ratio with time (intact rats, tall and low cages, vs untreated, FIGS. 10 and 11): changed much less
- change in LBM/BW ratio with time (intact rats, tall and low cages, vs untreated, FIGS. 14 and 15): changed much less
- attenuating effect on change in LBM/BW ratio over time (ovariectomized rats compared with intact rats, FIGS. 14 to 17): greater for intact rats than it was for ovariectomized rats
- increase in body fat content (ovariectomized rats housed in low cages, FIG. 5): less so
- increase in body fat content (ovariectomized rats housed in taller cages, FIG. 5): significantly smaller increase
- increase in bone mineral content (ovariectomized rats, FIG. 9): attenuation of the increase
- overall weight gain (ovariectomized rats, tall and low cages, 300 nmoles per kg s.c. daily five days per week, vs untreated, FIG. 3): relative decrease in overall weight gain
- attenuating effect on decrease in BMC/BW ratio with time (ovariectomized rats, tall and low cages, compared with intact rats, FIGS. 12 and 13): less pronounced
